PubChem BioAssay AID248 (DTP/NCI, 2004)
“And” between values parts separate entries of the source, which are not always exact repeats. Identical values can stand only once. Toxic doses and inconclusive results are not listed.

Test system: L1210 leukemia ip in BDF1 mice, survival T/C
Assay: NCI In Vivo Anticancer Drug Screen. Data for tumor model L1210 Leukemia (intraperitoneal) in B6D2F1 (BDF1) mice
Details: higher = longer survival
Procedure, shortened: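 Mice bearing the transplanted tumor received compound or vehicle. Survival of the treated group was divided by that of the vehicle-treated control group to give the ratio.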

Question: With C1CN1c1nc(N2CC2)nc(N2CC2)n1 as the molecule, how does the T/C (endpoint: mean survival time, dose: 1.0 mg/kg/injection, schedule: Q01DX009 (oral), vehicle: saline) read?
Answer: 124 % of control

Question: What about the T/C (endpoint: mean survival time, dose: 1.0 mg/kg/injection, schedule: Q01DX010 (oral), vehicle: carboxymethylcellulose (CMC)) of the same molecule?
Answer: 119 % of control

Question: And the T/C (endpoint: mean survival time, dose: 1.0 mg/kg/injection, schedule: Q01DX Z (ip), vehicle: saline)?
Answer: 96 % of control and 110 % of control

Question: What about the T/C (endpoint: mean survival time, dose: 1.0 mg/kg/injection, schedule: Q04DX003 (ip), vehicle: Klucel (hydroxypropylcellulose) (HPC)) of the same molecule?
Answer: 152 % of control and 173 % of control

Question: And the T/C (endpoint: mean survival time, dose: 1.0 mg/kg/injection, schedule: Q## X003 (ip), vehicle: saline)?
Answer: 177 % of control

Question: And the T/C (endpoint: mean survival time, dose: 1.0 mg/kg/injection, schedule: Q## X008 (ip), vehicle: saline)?
Answer: 108 % of control

Question: And the T/C (endpoint: mean survival time, dose: 1.0 mg/kg/injection, schedule: Q#A X Z (ip), vehicle: saline)?
Answer: 93 % of control

Question: What about the T/C (endpoint: mean survival time, dose: 1.3 mg/kg/injection, schedule: Q## X003 (ip), vehicle: saline) of the same molecule?
Answer: 164 % of control

Question: And the T/C (endpoint: mean survival time, dose: 1.3 mg/kg/injection, schedule: Q## X004 (ip), vehicle: saline)?
Answer: 185 % of control

Question: And the T/C (endpoint: mean survival time, dose: 1.5 mg/kg/injection, schedule: Q01DX005 (ip), vehicle: saline)?
Answer: 118 % of control

Question: What about the T/C (endpoint: mean survival time, dose: 1.5 mg/kg/injection, schedule: Q04DX003 (ip), vehicle: saline) of the same molecule?
Answer: 169 % of control

Question: And the T/C (endpoint: mean survival time, dose: 1.75 mg/kg/injection, schedule: Q07DX Z (ip), vehicle: saline)?
Answer: 193 % of control

Question: What about the T/C (endpoint: mean survival time, dose: 2.0 mg/kg/injection, schedule: Q01DX001 (oral), vehicle: saline) of the same molecule?
Answer: 106 % of control

Question: And the T/C (endpoint: mean survival time, dose: 2.0 mg/kg/injection, schedule: Q01DX001 (sc), vehicle: saline)?
Answer: 159 % of control

Question: What about the T/C (endpoint: mean survival time, dose: 2.0 mg/kg/injection, schedule: Q01DX010 (oral), vehicle: carboxymethylcellulose (CMC)) of the same molecule?
Answer: 97 % of control

Question: And the T/C (endpoint: mean survival time, dose: 2.0 mg/kg/injection, schedule: Q## X002 (ip), vehicle: saline)?
Answer: 197 % of control

Question: What about the T/C (endpoint: mean survival time, dose: 2.0 mg/kg/injection, schedule: Q## X003 (ip), vehicle: saline) of the same molecule?
Answer: 172 % of control and 186 % of control

Question: And the T/C (endpoint: mean survival time, dose: 2.0 mg/kg/injection, schedule: Q## X004 (ip), vehicle: saline)?
Answer: 191 % of control

Question: What about the T/C (endpoint: mean survival time, dose: 2.0 mg/kg/injection, schedule: Q## X006 (ip), vehicle: saline) of the same molecule?
Answer: 193 % of control

Question: What about the T/C (endpoint: mean survival time, dose: 2.0 mg/kg/injection, schedule: Q## X016 (ip), vehicle: saline) of the same molecule?
Answer: 168 % of control

Question: What about the T/C (endpoint: mean survival time, dose: 2.0 mg/kg/injection, schedule: Q## X024 (ip), vehicle: saline) of the same molecule?
Answer: 188 % of control

Question: What about the T/C (endpoint: mean survival time, dose: 2.1 mg/kg/injection, schedule: Q01DX001 (ip), vehicle: saline) of the same molecule?
Answer: 187 % of control

Question: What about the T/C (endpoint: mean survival time, dose: 3.0 mg/kg/injection, schedule: Q01DX001 (ip), vehicle: saline) of the same molecule?
Answer: 107 % of control

Question: What about the T/C (endpoint: mean survival time, dose: 3.0 mg/kg/injection, schedule: Q## X003 (ip), vehicle: saline) of the same molecule?
Answer: 150 % of control

Question: And the T/C (endpoint: mean survival time, dose: 3.0 mg/kg/injection, schedule: Q## X004 (ip), vehicle: saline)?
Answer: 108 % of control

Question: And the T/C (endpoint: mean survival time, dose: 3.13 mg/kg/injection, schedule: Q01DX001 (ip), vehicle: saline)?
Answer: 164 % of control

Question: And the T/C (endpoint: mean survival time, dose: 3.2 mg/kg/injection, schedule: Q01DX001 (ip), vehicle: saline)?
Answer: 213 % of control

Question: And the T/C (endpoint: mean survival time, dose: 4.0 mg/kg/injection, schedule: Q01DX001 (oral), vehicle: saline)?
Answer: 122 % of control

Question: And the T/C (endpoint: mean survival time, dose: 4.0 mg/kg/injection, schedule: Q01DX009 (oral), vehicle: saline)?
Answer: 113 % of control

Question: What about the T/C (endpoint: mean survival time, dose: 4.0 mg/kg/injection, schedule: Q01DX Z (oral), vehicle: saline) of the same molecule?
Answer: 93 % of control

Question: What about the T/C (endpoint: mean survival time, dose: 4.0 mg/kg/injection, schedule: Q## X002 (ip), vehicle: saline) of the same molecule?
Answer: 118 % of control

Question: What about the T/C (endpoint: mean survival time, dose: 4.0 mg/kg/injection, schedule: Q## X006 (ip), vehicle: saline) of the same molecule?
Answer: 95 % of control

Question: And the T/C (endpoint: mean survival time, dose: 4.5 mg/kg/injection, schedule: Q01DX001 (ip), vehicle: saline)?
Answer: 94 % of control

Question: What about the T/C (endpoint: mean survival time, dose: 4.5 mg/kg/injection, schedule: Q## X003 (ip), vehicle: saline) of the same molecule?
Answer: 98 % of control

Question: What about the T/C (endpoint: mean survival time, dose: 4.5 mg/kg/injection, schedule: Q## X004 (ip), vehicle: saline) of the same molecule?
Answer: 106 % of control

Question: And the T/C (endpoint: mean survival time, dose: 8.0 mg/kg/injection, schedule: Q01DX001 (ip), vehicle: saline)?
Answer: 110 % of control

Question: And the T/C (endpoint: mean survival time, dose: 16.0 mg/kg/injection, schedule: Q01DX001 (ip), vehicle: saline)?
Answer: 107 % of control

Question: What about the T/C (endpoint: mean survival time, dose: 49.0 micrograms/kg/injection, schedule: Q01DX Z (ip), vehicle: carboxymethylcellulose (CMC)) of the same molecule?
Answer: 95 % of control

Question: And the T/C (endpoint: mean survival time, dose: 98.0 micrograms/kg/injection, schedule: Q01DX Z (ip), vehicle: carboxymethylcellulose (CMC))?
Answer: 97 % of control

Question: And the T/C (endpoint: mean survival time, dose: 195.0 micrograms/kg/injection, schedule: Q01DX Z (ip), vehicle: carboxymethylcellulose (CMC))?
Answer: 95 % of control

Question: What about the T/C (endpoint: mean survival time, dose: 390.0 micrograms/kg/injection, schedule: Q01DX Z (ip), vehicle: carboxymethylcellulose (CMC)) of the same molecule?
Answer: 100 % of control

Question: What about the T/C (endpoint: median survival time, dose: 0.25 mg/kg/injection, schedule: Q01DX001 (ip), vehicle: saline) of the same molecule?
Answer: 104 % of control

Question: What about the T/C (endpoint: median survival time, dose: 0.5 mg/kg/injection, schedule: Q01DX001 (ip), vehicle: saline) of the same molecule?
Answer: 115 % of control
